What was measured:
[1] = tested on: COR-L279 (Small Cell Lung Carcinoma); test: Bliss excess, mean over the matrix (fraction); higher = more synergy
Method in brief: (§1)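 Bliss excess equals the observed combination effect minus the expected value EA + EB − EA·EB, where EA and EB are the effects of each agent alone. Combination Emax is the second-highest inhibition within the matrix. Inhibition was scaled from CellTiter-Glo 2.0 luminescence, with 0 set by vehicle wells and 1 by blank wells, after 72 hours of two-drug dosing of cells plated in 1536-well plates.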

[2] = tested on: CW-2 (Colorectal Carcinoma); test: as above
Method in brief: as §1

[3] = tested on: DMS-114 (Small Cell Lung Carcinoma); test: as above
Method in brief: as §1

[4] = tested on: KU812 (Chronic Myelogenous Leukemia); test: as above
Method in brief: as §1

[5] = tested on: KYSE-270 (Esophageal Squamous Cell Carcinoma); test: as above
Method in brief: as §1

[6] = tested on: M059J (Glioblastoma); test: as above
Method in brief: as §1

[7] = tested on: MN-60 (B-Lymphoblastic Leukemia); test: as above
Method in brief: as §1

[8] = tested on: MOG-G-CCM (Low Grade Glioma); test: as above
Method in brief: as §1

[9] = tested on: NCCIT (Other Solid Carcinomas); test: as above
Method in brief: as §1

[10] = tested on: NCI-H2731 (Mesothelioma); test: as above
Method in brief: as §1

[11] = tested on: NCI-H3122 (Lung Adenocarcinoma); test: as above
Method in brief: as §1

[12] = tested on: NCI-H520 (Squamous Cell Lung Carcinoma); test: as above
Method in brief: as §1

[13] = tested on: NCI-H526 (Small Cell Lung Carcinoma); test: as above
Method in brief: as §1

[14] = tested on: NCI-H929 (Plasma Cell Myeloma); test: as above
Method in brief: as §1

[15] = tested on: OCI-AML3 (Acute Myeloid Leukemia); test: as above
Method in brief: as §1

[16] = tested on: SJSA-1 (Osteosarcoma); test: as above
Method in brief: as §1

[17] = tested on: SK-GT-4 (Esophageal Adenocarcinoma); test: as above
Method in brief: as §1

[18] = tested on: ST486 (Burkitt's Lymphoma); test: as above
Method in brief: as §1

[19] = tested on: T-T (Esophageal Squamous Cell Carcinoma); test: as above
Method in brief: as §1

[20] = tested on: VMRC-RCZ (Kidney Carcinoma); test: as above
Method in brief: as §1

[21] = tested on: COR-L279 (Small Cell Lung Carcinoma); test: combination Emax (second highest fraction inhibited in the dose matrix, 72 h); higher = more inhibition; extreme values may be limits of the assay
Method in brief: as §1

[22] = tested on: CW-2 (Colorectal Carcinoma); test: as above
Method in brief: as §1

[23] = tested on: DMS-114 (Small Cell Lung Carcinoma); test: as above
Method in brief: as §1

[24] = tested on: KU812 (Chronic Myelogenous Leukemia); test: as above
Method in brief: as §1

[25] = tested on: KYSE-270 (Esophageal Squamous Cell Carcinoma); test: as above
Method in brief: as §1

[26] = tested on: M059J (Glioblastoma); test: as above
Method in brief: as §1

[27] = tested on: MN-60 (B-Lymphoblastic Leukemia); test: as above
Method in brief: as §1

[28] = tested on: MOG-G-CCM (Low Grade Glioma); test: as above
Method in brief: as §1

[29] = tested on: NCCIT (Other Solid Carcinomas); test: as above
Method in brief: as §1

[30] = tested on: NCI-H2731 (Mesothelioma); test: as above
Method in brief: as §1

[31] = tested on: NCI-H3122 (Lung Adenocarcinoma); test: as above
Method in brief: as §1

[32] = tested on: NCI-H520 (Squamous Cell Lung Carcinoma); test: as above
Method in brief: as §1

[33] = tested on: NCI-H526 (Small Cell Lung Carcinoma); test: as above
Method in brief: as §1

[34] = tested on: NCI-H929 (Plasma Cell Myeloma); test: as above
Method in brief: as §1

[35] = tested on: OCI-AML3 (Acute Myeloid Leukemia); test: as above
Method in brief: as §1

[36] = tested on: SJSA-1 (Osteosarcoma); test: as above
Method in brief: as §1

[37] = tested on: SK-GT-4 (Esophageal Adenocarcinoma); test: as above
Method in brief: as §1

[38] = tested on: ST486 (Burkitt's Lymphoma); test: as above
Method in brief: as §1

[39] = tested on: T-T (Esophageal Squamous Cell Carcinoma); test: as above
Method in brief: as §1

[40] = tested on: VMRC-RCZ (Kidney Carcinoma); test: as above
Method in brief: as §1

| Compound | Bliss excess [1] | Bliss excess [2] | Bliss excess [3] | Bliss excess [4] | Bliss excess [5] | Bliss excess [6] | Bliss excess [7] | Bliss excess [8] | Bliss excess [9] | Bliss excess [10] | Bliss excess [11] | Bliss excess [12] | Bliss excess [13] | Bliss excess [14] | Bliss excess [15] | Bliss excess [16] | Bliss excess [17] | Bliss excess [18] | Bliss excess [19] | Bliss excess [20] | combination Emax [21] | combination Emax [22] | combination Emax [23] | combination Emax [24] | combination Emax [25] | combination Emax [26] | combination Emax [27] | combination Emax [28] | combination Emax [29] | combination Emax [30] | combination Emax [31] | combination Emax [32] | combination Emax [33] | combination Emax [34] | combination Emax [35] | combination Emax [36] | combination Emax [37] | combination Emax [38] | combination Emax [39] | combination Emax [40] |
| --- | --- | --- | --- | --- | --- | --- | --- | --- | --- | --- | --- | --- | --- | --- | --- | --- | --- | --- | --- | --- | --- | --- | --- | --- | --- | --- | --- | --- | --- | --- | --- | --- | --- | --- | --- | --- | --- | --- | --- | --- |
| C=CCn1c(=O)c2cnc(Nc3ccc(N4CCN(C)CC4)cc3)nc2n1-c1cccc(C(C)(C)O)n1 [AZD1775] + Nc1ccn([C@@H]2O[C@H](CO)[C@@H](O)C2(F)F)c(=O)n1 [Gemcitabine] (first compound max 1 µM, partner max 0.3 µM) | 0.0556 | -0.0511 | 0.0581 | -0.0107 | 0.0411 | 0.0175 | -0.0157 | 0.0455 | 0.0864 | 0.0305 | -0.0379 | 0.0314 | 0.0642 | 0.0302 | 0.0084 | -0.0822 | 0.006 | 0.0019 | 0.0692 | 0.0417 | 0.987 | 0.559 | 0.643 | 0.836 | 0.983 | 0.802 | 0.653 | 0.778 | 0.899 | 0.533 | 0.803 | 0.871 | 0.968 | 0.906 | 0.95 | 0.656 | 0.44 | 0.985 | 0.521 | 0.481 |
| C[C@@H]1COCCN1c1cc(C2([S@](C)(=N)=O)CC2)nc(-c2ccnc3[nH]ccc23)n1 [AZD6738] + Nc1ccn([C@@H]2O[C@H](CO)[C@@H](O)C2(F)F)c(=O)n1 [Gemcitabine] (first compound max 10 µM, 7x7, partner max 0.3 µM) | 0.0205 | 0.0109 | 0.0549 | -0.0077 | 0.0806 | 0.0209 | -0.0375 | 0.0311 | 0.107 | 0.0371 | 0.0297 | 0.0434 | 0.0678 | 0 | -0.0143 | -0.0104 | 0.023 | 0.0362 | 0.221 | 0.0193 | 0.995 | 0.659 | 0.78 | 0.853 | 1 | 0.823 | 0.72 | 0.783 | 0.839 | 0.511 | 0.899 | 0.916 | 0.973 | 0.906 | 0.953 | 0.722 | 0.585 | 0.98 | 0.897 | 0.542 |
| CN(CCO)CC[C@H](CSc1ccccc1)Nc1ccc(S(=O)(=O)NC(=O)c2ccc(N3CCC([C@@H](O)c4ccccc4-c4ccc(Cl)cc4)CC3)cc2)cc1S(=O)(=O)C(F)(F)F [AZD4320] + Nc1ccn([C@@H]2O[C@H](CO)[C@@H](O)C2(F)F)c(=O)n1 [Gemcitabine] (first compound max 1 µM, 7x7, partner max 0.3 µM) | 0.0843 | -0.058 | 0.0444 | -0.0788 | -0.0293 | -0.0021 | -0.0618 | -0.0629 | -0.0058 | 0.0222 | -0.0298 | -0.0178 | 0.0952 | -0.0176 | 0.0034 | 0.0439 | -0.0288 | -0.0194 | 0.0546 | 0.0103 | 1 | 0.557 | 0.524 | 0.954 | 0.89 | 0.837 | 0.493 | 0.597 | 0.187 | 0.44 | 0.846 | 0.894 | 0.993 | 0.9 | 0.984 | 0.952 | 0.31 | 0.972 | 0.476 | 0.589 |
| Cc1c2c(nn1C)CSCc1cc(n(C)n1)CSc1cc(c3ccccc3c1)OCCCc1c(C(=O)O)n(C)c3c-2c(Cl)ccc13 [AZD5991] + Nc1ccn([C@@H]2O[C@H](CO)[C@@H](O)C2(F)F)c(=O)n1 [Gemcitabine] (first compound max 1 µM, 7x7, partner max 0.3 µM) | -0.012 | -0.0677 | 0.07 | -0.0709 | -0.0129 | -0.0325 | -0.0611 | -0.0059 | -0.0617 | -0.0359 | 0.0092 | -0.0389 | 0.0249 | 0.0087 | 0.0245 | -0.0319 | -0.042 | 0.0089 | 0.058 | -0.001 | 0.975 | 0.613 | 0.908 | 0.842 | 0.965 | 0.681 | 0.518 | 0.523 | 0.725 | 0.358 | 0.922 | 0.811 | 0.914 | 1 | 1 | 0.725 | 0.31 | 0.904 | 0.929 | 0.392 |
